Assay results as given in patent publication US9320773B2, “Compounds and therapeutic applications related to inhibition of dendritic cell immunoreceptor (DCIR) activity and signaling events” (priority 2010, dated 2016).
Non-standard residues stand in square brackets, D forms with d. Residues, ends and D or L forms follow the SMILES beside them. *: point of attachment. pY = N[C@@H](Cc1ccc(OP(=O)(O)O)cc1)C(=O)O; pT = C[C@@H](OP(=O)(O)O)[C@H](N)C(=O)O; Cbz = O=C(OCc1ccccc1)*; CH2F = FC*

Experiments:
[1] = tested on: HIV-1 NL4-3 in Raji-CD4-DCIR cells; assay: HIV-1 binding/entry assay in Raji-CD4-DCIR cells (cell-associated p24 ELISA); type: cell-based; conditions: for HIV-1 binding/entry: cells pretreated with inhibitor 10 min, pulsed with NL4-3 60 min, result in words; for Binding/entry: Table 3, pharmacological inhibitors, symbols not defined
Method: FIG. 2A: Raji-CD4 and Raji-CD4-DCIR cells were either left untreated or treated with SSG (100 μg/ml) for 10 min at 37° C. Thereafter, cells were pulsed with NL4-3 for 60 min. After three washes with PBS to remove non-adsorbed virus, cell-associated virus was quantified by measuring the p24 content. Data shown correspond to the means±SD of triplicate samples from three combined independent experiments. The asterisk denotes statistically significant data (*, P<0.05; **, P<0.01). FIG. 2B: Cells were either left untransfected or transfected with a sense or antisense oligonucleotide specific for the signalling protein of interest. Next, cells were pulsed with NL4-3 for 60 min. After three washes with PBS to eliminate unbound virus, cell-associated virus was quantified by measuring the p24 content. Data shown correspond to the means±SD of triplicate samples from three combined independent experiments. The asterisk denotes statistically significant data (*, P<0.05; **, P<0.01). After gene silencing, the diminution of the targeted protein was verified by western blots, provided as an insert for each graph.
Where indicated, parental Raji-CD4 cells (DCIR-negative) or Raji-CD4-DCIR transfectants (1×10^6) were pretreated with the indicated amount of a pharmacological inhibitor for 10 min or transfected with sense or antisense oligonucleotides as described below. Cells were then pulsed with NL4-3 (100 ng of p24) for 60 min at 37° C. Next the virus-cell mixture was washed 3 times with PBS to remove unbound virus and resuspended in PBS containing 1% BSA. To assess binding/entry, the p24 content was determined by our in-house ELISA assay^33.
Raji-CD4 and Raji-CD4-DCIR cells (1×10^6 cells) were washed with OptiMEM (Invitrogen Life Technologies) without serum and antibiotics. The phosphorothioate oligodeoxynucleotides (Listed in Table 1) (Invitrogen Life Technologies) were transfected at a final concentration of 10 μM/well^35 using Oligofectamine according to the manufacturer's instructions (Invitrogen Life Technologies). Silencing efficiency was monitored by western blot analysis.

[2] = tested on: HIV-1 NL4-3balenv in IM-MDDCs; assay: HIV-1 infection of IM-MDDCs transfected with ITIM peptides (p24 in supernatants); type: cell-based; conditions: peptides inserted with Pro-Ject, NL4-3balenv 2 hours, culture up to 9 days; result in words
Method: (§1) FIG. 7A: Raji-CD4 cells were transduced with a retroviral vector expressing either a wild-type form of DCIR, a T6F mutant of DCIR, or a Y7F mutant of DCIR. Surface expression level of DCIR was assessed by flow cytometry using a combination of PE-labelled anti-DCIR antibody (dotted lines) and a control isotype-matched antibody (continuous lines). […] FIG. 7B: For the virus binding/entry assay shown in the left panel, the indicated cell lines were exposed to NL4-3. For the infection assay shown in the right panel, the same cells were exposed to NL4-3 for 2 hours at 37° C., and then maintained in culture for 9 days. FIG. 7C: IM-MDDCs were treated with Pro-Ject only, with a control peptide or an ITIM peptide, either not phosphorylated or phosphorylated on the tyrosine or threonine residue, during 5 min at 37° C. Next, cells were pulsed with NL4-3balenv for 60 min at 37° C. and washed extensively before measuring the p24 content (left panel). […] Cell-free culture supernatants were quantified by measuring the p24 content. […]
(§2) For assessing binding/entry, IM-MDDCs (3×10^5 cells in a final volume of 300 μl) transfected with one of the ITIM peptides were exposed to NL4-3balenv (30 ng of p24) for 60 min at 37° C. […] The p24 content was determined by ELISA. As for susceptibility of IM-MDDCs to HIV-1 infection, it was assessed by initially exposing 3×10^5 cells to NL4-3balenv (30 ng) for 2 hours at 37° C. […]

[3] = tested on: HIV-1 NL4-3balenv in IM-MDDCs; assay: HIV-1 binding/entry in IM-MDDCs transfected with ITIM peptides (p24); type: cell-based; conditions: peptides inserted with Pro-Ject, NL4-3balenv 60 min; result in words
Method: as §1, §2

CD4+ T cells = assay: Cell toxicity / viability of CD4+ T cells; type: cell-based, human; conditions: HIV-1-infected CD4+ T cells; data not shown
[4] = tested on: DCIR expression in CD4+ T cells; assay: DCIR expression in CD4+ T cells after H2O2 or other apoptosis inducers (flow cytometry); type: cell-based, human
Method: Next, DCIR expression was assessed by flow cytometry. Data shown represent the ratio of DCIR expression over basal expression. The ratio is calculated from the means±SD of triplicate samples from three independent experiments. […] FIG. 16A: […] Expression of DCIR is shown as a dotted line, whereas the continuous line represents staining obtained with an isotype-matched irrelevant control Ab. Data shown correspond to a single experiment representative of 3 independent experiments. FIG. 16B: […] Thereafter, DCIR surface expression and caspase activation were monitored by flow cytometric analysis using a double-staining method consisting of FITC-VAD-FMK followed by the R-PE-conjugated anti-DCIR. Data shown correspond to a single experiment representative of 4 independent experiments. Cell surface expression of DCIR was monitored by flow cytometric analysis (Epics ELITE ESP, Coulter Electronics, Burlington, Canada). […] After washing, the cells were incubated with PE-labeled anti-DCIR (0.25 μg) for 45 min at 4° C. and then washed twice with PBS and 0.5% BSA. Non-specific staining was determined by using an isotype-matched irrelevant control antibody. After two final washes with PBS, cells were fixed in 2% paraformaldehyde for 30 min and analyzed.

[5] = tested on: DCIR expression in CD4+ T cells; assay: HIV-1-mediated induction of DCIR expression in CD4+ T cells (flow cytometry); type: cell-based, human; conditions: for HIV-1-mediated DCIR expression: cells pre-treated before virus infection, 3 days, result in words
Method: Mitogen-activated CD4^+ T cells (1×10^6) were first either left untreated or treated for 1 h with the caspase inhibitor Z-VAD-FMK (50 nM), after which HIV-1 was added (100 ng of p24), where indicated. DCIR expression was monitored 3 days later by flow cytometry. Data shown represent the means±SD of triplicate samples from three independent experiments.
Cells (1×10^6) were first either left untreated or treated for 1 h with NAC, after which HIV-1 (100 ng of p24) was added. DCIR expression was monitored 3 days later by flow cytometry. Expression of DCIR is shown as a dotted line, whereas the continuous line represents staining obtained with an isotype-matched irrelevant control Ab. Data shown correspond to a single experiment representative of 3 independent experiments.
Cell surface expression of DCIR was monitored by flow cytometric analysis (Epics ELITE ESP, Coulter Electronics, Burlington, Canada). Cells (1×10^6 cells) were incubated for 30 min with a pool of human serum to block the unspecific binding. After washing, the cells were incubated with PE-labeled anti-DCIR (0.25 μg) for 45 min at 4° C. and then washed twice with PBS and 0.5% BSA. Non-specific staining was determined by using an isotype-matched irrelevant control antibody. After two final washes with PBS, cells were fixed in 2% paraformaldehyde for 30 min and analyzed.

[6] = tested on: HIV-1 NL4-3 in Raji-CD4-DCIR cells; assay: HIV-1 infection assay in Raji-CD4-DCIR cells, real-time PCR of spliced Tat mRNA; type: cell-based; conditions: Table 3, pharmacological inhibitors; symbols not defined
Method: FIG. 6A: Raji-CD4 and Raji-CD4-DCIR were either left untreated or preincubated with tyrosine phosphatase inhibitor SSG (100 μg/ml); Syk inhibitor piceatannol (10 μM); Src inhibitor PP2 (10 μM); classical PKC inhibitor Gö6976 (1 μM); MAPK p38 inhibitor SB203580 (2 μM), MAP kinase inhibitor PD98059 ([…]) for 10 min. FIG. 6B: Raji-CD4 and Raji-CD4-DCIR were treated with Oligofectamine and then either left untreated or exposed to a sense or an antisense oligonucleotide against different signalling proteins during 5 hours. Next, cells were exposed to NL4-3 for 24 hours. Virus infection was determined by real-time PCR of spliced Tat mRNA. Data shown correspond to the means±SD of triplicate samples from three independent experiments. The asterisk denotes statistically significant data (*, P<0.05; ***, P<0.001).
For the infection assay performed before measuring Tat mRNA, Raji-CD4 and Raji-CD4-DCIR cells were treated with the indicated inhibitor or transfected with the indicated oligonucleotide (as described below). Cells were then pulsed with NL4-3 during 24 hours. […] The expression level of Tat mRNA was measured by real-time PCR, as described below.
Expression levels of TAT splice transcripts were determined using a Rotor-Gene™ system (Corbett Life Science). […] After elution, the amount and quality of RNA was assessed by measuring the absorbance at 260 and 280 nm. […]

Compound: C[S+]([O-])c1ccc(-c2nc(-c3ccncc3)c(-c3ccc(F)cc3)[nH]2)cc1 (stereo not drawn) [SB203580]
- HIV-1 binding/entry [1]: significant decrease

Compound: TAMRA-EITY(PO3H2)AEVRFKNES-OH ({TAMRA}-EIT[pY]AEVRFKNES-OH) [ITIM peptide phosphorylated on tyrosine]
- virus replication / infection [2]: decrease
- virus binding/entry [3]: decrease

Compound: CC(C)(C)n1nc(-c2ccc(Cl)cc2)c2c(N)ncnc21 [PP2]
- HIV-1 binding/entry [1]: decreased

Compound: COC(=O)CC(NC(=O)C(C)NC(=O)C(NC(=O)OCc1ccccc1)C(C)C)C(=O)CF (stereo not drawn) [Z-VAD-FMK, Benzyloxycarbonyl-Val-Ala-Asp (OMe) fluoromethylketone] (Cbz-Val-Ala-Asp(OMe)-CH2F; configuration not given here)
- cell toxicity (CD4+ T cells): no toxicity
- DCIR expression in activated CD4+ T cells ([4]; cells treated with both H2O2 (30 μM) and Z-VAD-FMK (50 nM, 1 h pretreatment), n=3): 1.0±0.2%
- DCIR expression after H2O2 stimulation ([4]; pretreatment with Z-VAD-FMK, result in words): prevented
- HIV-1-mediated DCIR expression [5]: partially reduced

Compound: O=S(=O)(NCCNC/C=C/c1ccc(Br)cc1)c1cccc2cnccc12 [H89]
- Binding/entry [1]: Ø
- HIV-1 binding/entry [1]: not participating
- Infection [6]: Ø

Compound: TAMRA-EIT(PO3H2)YAEVRFKNEFKS-OH ({TAMRA}-EI[pT]YAEVRFKNEFKS-OH) [ITIM peptide phosphorylated on threonine]
- virus replication / infection [2]: decrease
- virus binding/entry [3]: decrease

Compound: C(=C\c1ccccc1)/c1ccccc1 [trans-stilbene]
- HIV-1 binding/entry [1]: inability of the inactive analog trans-stilbene to induce a comparable decrease

Compound: C/C(O)=C(\C#N)C(=O)Nc1cc(Br)ccc1Br [LFM-A13]
- Binding/entry [1]: Ø
- HIV-1 binding/entry [1]: not involved
- Infection [6]: Ø

Compound: CC(=O)N[C@@H](CS)C(=O)O [NAC, N-acetyl-L-cystein]
- cell toxicity (CD4+ T cells): no toxicity
- HIV-1-mediated DCIR expression [5]: inhibited but not completely
- HIV-1-induced expression of DCIR on the surface of CD4+ T cells ([5]; virus-infected cells also treated with NAC, n=3, 16.2±3.4% in HIV-1-infected cells without NAC): 6.7±1.7%

Compound: Oc1cc(O)cc(/C=C/c2ccc(O)c(O)c2)c1 [Pic, piceatannol]
- HIV-1 binding/entry [1]: significantly decreases

Compound: Cn1c2ccccc2c2c3c(c4c5ccccc5n(CCC#N)c4c21)CNC3=O [Go6976]
- HIV-1 binding/entry [1]: play a role

Compound: CN[C@@H]1C[C@H]2O[C@@](C)([C@@H]1OC)n1c3ccccc3c3c4c(c5c6ccccc6n2c5c31)C(=O)NC4 [staurosporine]
- DCIR expression ([4]; CD4+ T cells treated with inducer, H2O2 20 to 60 μM, result in words): promoted

Compound: COc1cccc(-c2cc(=O)c3ccccc3o2)c1N [PD98059]
- HIV-1 binding/entry [1]: significant decrease
